The values that follow come from ChEMBL document CHEMBL5584257, “Semisynthetic derivatives of the fungal metabolite eupenifeldin via targeting the tropolone hydroxy groups” (Bioorg Med Chem Lett, 2024).

One data set concerns OVCAR-3. The data set can be described thus: Cytotoxicity against human OVCAR-3 cells treated for 72 hrs. In kind it is functional, cell-based. Conditions: OVCAR-3, 72 h.
The subject of a further data set is MDA-MB-435. Briefly: Cytotoxicity against human MDA-MB-435 cells treated for 72 hrs. In kind it is functional, cell-based. Conditions: MDA-MB-435, 72 h.
Data set [1] can be described thus: Relative solubility of compound by measuring ratio of solubility of compound to solubility of Eupenifeldin. In kind it is physicochemical.
Data set [2] can be described thus: Lipophilicity, logD of compound at pH 7.4. In kind it is physicochemical. Conditions: buffer.
A short description of data set [3]: Aqueous solubility of compound. In kind it is physicochemical. Conditions: buffer.

≈ marks a conversion by molar mass, not a printed value. A value given as a limit tells only on which side of the number the result lay.

One may read the IC50 as the midpoint of a concentration-inhibition curve. High values mean weaker potency in that assay, low ones greater potency in that assay. A word on the logD: it is lipophilicity at a set pH, counting ionised and neutral species. Take `CC(=O)Oc1cc2c(ccc1=O)C[C@H]1CC(C)(C)/C=C/C[C@]3(C)Oc4cc(OC(C)=O)c(=O)cc(C)c4C[C@H]3C[C@H](OC(C)=O)[C@@]1(C)O2`: the IC50 turned out to be 193 nM in the data set on OVCAR-3 and 72 nM in the data set with MDA-MB-435. Moreover, the Ratio in data set [1] was 4 10^-2No_unit. Further, in data set [2] (read-out: logD), the pH-dependent lipophilicity (logD) is 5.5.

With `COCCOC(=O)Oc1cc2c(ccc1=O)C[C@H]1CC(C)(C)/C=C/C[C@]3(C)Oc4cc(OC(=O)OCCOC)c(=O)cc(C)c4C[C@H]3C[C@H](O)[C@@]1(C)O2`, the IC50 with OVCAR-3 is greater than 250 nM; with MDA-MB-435, 101 nM. The Ratio in data set [1] is listed as 0.2. Besides, the logD in data set [2] (read-out: logD) turned out to be 4.6.

Turning to `COCCOC(=O)Oc1cc2c(c(C)cc1=O)C[C@H]1C[C@H](O)[C@@]3(C)Oc4cc(O)c(=O)ccc4C[C@H]3CC(C)(C)/C=C/C[C@]1(C)O2`, the half-maximal inhibitory concentration (IC50) in the data set on OVCAR-3 stood at 76 nM; in the data set on MDA-MB-435, 31 nM. Further, the Ratio in data set [1] amounted to 0.4. Also, the log distribution coefficient (logD) in data set [2] (read-out: logD) was determined as 4.3.

Consider `Cc1cc(=O)c(OC(=O)C2CC2)cc2c1C[C@H]1C[C@H](O)[C@@]3(C)Oc4cc(OC(=O)C5CC5)c(=O)ccc4C[C@H]3CC(C)(C)/C=C/C[C@]1(C)O2`, for which the 50% inhibitory concentration (IC50) is greater than 250 nM with OVCAR-3 and 77 nM in the data set on MDA-MB-435. In data set [1], the Ratio is on record as 5 10^-3No_unit. Moreover, the pH-dependent lipophilicity (logD) in data set [2] (read-out: logD) came to 5.3.

Turning to `Cc1cc(=O)c(OCc2ccccc2)cc2c1C[C@H]1C[C@H](O)[C@@]3(C)Oc4cc(OCc5ccccc5)c(=O)ccc4C[C@H]3CC(C)(C)/C=C/C[C@]1(C)O2`, the IC50 in the data set on OVCAR-3 was greater than 250 nM; with MDA-MB-435, 97 nM. Moreover, the Ratio in data set [1] was 2 10^-4No_unit. Besides, in data set [2] (read-out: logD), the logD turned out to be 7.5.

Consider `CCN(CC)C(=O)Oc1cc2c(ccc1=O)C[C@H]1CC(C)(C)/C=C/C[C@]3(C)Oc4cc(OC(=O)N(CC)CC)c(=O)cc(C)c4C[C@H]3C[C@H](O)[C@@]1(C)O2`, for which the IC50 with OVCAR-3 is 189 nM; in the data set on MDA-MB-435 it was greater than 250 nM. For the same molecule, the Ratio in data set [1] is on record as 2 10^-2No_unit. The logD in data set [2] (read-out: logD) was determined as 5.9.

With `CC(=O)Oc1cc2c(ccc1=O)C[C@H]1CC(C)(C)/C=C/C[C@]3(C)Oc4cc(OC(C)=O)c(=O)cc(C)c4C[C@H]3C[C@H](O)[C@@]1(C)O2`, the results for the 50% inhibitory concentration (IC50) in the data set on OVCAR-3 and in the data set on MDA-MB-435 were greater than 250 nM and 53 nM, respectively. Besides, the Ratio in data set [1] is on record as 0.1. Besides, in data set [2] (read-out: logD), the pH-dependent lipophilicity (logD) was 4.6.

What is called solubility is the concentration that dissolves in the medium under given conditions. A lower solubility goes with little dissolved substance. Turning to `Cc1cc(=O)c(O)cc2c1C[C@H]1C[C@H](OC(=O)CCC(=O)O)[C@@]3(C)Oc4cc(O)c(=O)ccc4C[C@H]3CC(C)(C)/C=C/C[C@]1(C)O2`, the IC50 with OVCAR-3 stood at 157 nM; in the data set on MDA-MB-435, 441 nM. In data set [3], the solubility turned out to be 66.3 µg/mL (≈ 104 µM). The Ratio in data set [1] turned out to be 40. The logD in data set [2] (read-out: logD) is 1.

As for `Cc1cc(=O)c(OC(=O)C(C)(C)C)cc2c1C[C@H]1C[C@H](O)[C@@]3(C)Oc4cc(OC(=O)C(C)(C)C)c(=O)ccc4C[C@H]3CC(C)(C)/C=C/C[C@]1(C)O2`, the half-inhibitory concentration (IC50) in the data set on OVCAR-3 came out at 141 nM; with MDA-MB-435, 80 nM. Also, the Ratio in data set [1] is listed as 6 10^-3No_unit. The pH-dependent lipophilicity (logD) in data set [2] (read-out: logD) was determined as 6.9.

Turning to `Cc1cc(=O)c(OC(=O)N(c2ccccc2)c2ccccc2)cc2c1C[C@H]1C[C@H](O)[C@@]3(C)Oc4cc(OC(=O)N(c5ccccc5)c5ccccc5)c(=O)ccc4C[C@H]3CC(C)(C)/C=C/C[C@]1(C)O2`, the half-inhibitory concentration (IC50) in the data set with OVCAR-3 was 228 nM; with MDA-MB-435, greater than 250 nM. The molecule also gave a pH-dependent lipophilicity (logD) in data set [2] of 9.8.

In the case of `CC(=O)O[C@H]1C(=O)[C@@]2(C)[C@H]([C@H](OC(=O)c3ccccc3)[C@]3(O)C[C@H](OC(=O)[C@H](O)[C@@H](NC(=O)c4ccccc4)c4ccccc4)C(C)=C1C3(C)C)[C@]1(OC(C)=O)CO[C@@H]1C[C@@H]2O` [PACLITAXEL], the 50% inhibitory concentration (IC50) with OVCAR-3 is 0.1 nM.
